Results: patent publication US20260373266A1, “PROTEIN DEGRADERS AND USES THEREOF” (KYMERA THERAPEUTICS, INC., priority 2022, published 2026)

Target: T1, DCAF1 WD40 domain (residues 1077-1390) (Homo sapiens, UniProt Q9Y4B6)
T1 construct: DCAF1 WD40 domain (residues 1077-1390)
Assay: DCAF1 binding assay by SPR (Biacore 8K+), DCAF1-3 KD
Details: 25 °C, read-out: DCAF1-3 SPR (KD)

T1 sequence (Q9Y4B6 1077-1390): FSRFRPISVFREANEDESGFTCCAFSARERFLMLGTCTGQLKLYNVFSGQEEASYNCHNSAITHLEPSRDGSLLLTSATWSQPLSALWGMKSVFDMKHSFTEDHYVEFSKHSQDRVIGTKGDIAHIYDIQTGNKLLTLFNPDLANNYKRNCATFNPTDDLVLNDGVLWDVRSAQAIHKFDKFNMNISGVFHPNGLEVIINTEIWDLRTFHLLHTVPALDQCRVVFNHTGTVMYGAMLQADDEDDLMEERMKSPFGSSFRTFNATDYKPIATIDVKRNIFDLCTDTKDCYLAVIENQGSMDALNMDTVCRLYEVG

Structure (SMILES) | Kd [µM]
NC(=O)C[C@H](NC(=O)c1cn[nH]c1-c1cc(CC(F)F)ccc1F)c1cccc(Cl)c1 [I-251] | > 200
CN1CCC(n2cc(N3CCC[C@@H](Nc4cc(N5CCOCC5)ccn4)C3)cn2)CC1 [I-419] | > 200
Fc1cccc(N2CCC[C@@H](Nc3cc(N4Cc5ccccc5C4)ccn3)C2)c1 [I-554] | 10 to 100
Cc1c(F)ccc(F)c1-c1[nH]ncc1C(=O)N[C@@H](CC(=O)N1CCN(C)CC1)c1cccc(Cl)c1 [I-843] | < 10
NC(=O)C[C@H](NC(=O)c1cn[nH]c1-c1ccccc1F)c1ccccc1C(N)=O [I-352] | > 200
Cc1c(F)ccc(F)c1-c1c(C(=O)N[C@@H](CC(N)=O)c2cccc(Cl)c2)c[nH]c1C#N [I-798] | < 10
c1cc(N2CCOCC2)cc(N[C@@H]2CCCN(c3nccc(N4CCCC4)n3)C2)n1 [I-678] | 10 to 100
NC(=O)C[C@H](NC(=O)c1c[nH]c(C(=O)c2ccccc2)c1-c1ccccc1F)c1cccc(Cl)c1 [I-603] | < 10
C=CC(=O)Nc1ccc(-c2n[nH]cc2C(=O)N[C@@H](CC(N)=O)c2cccc(Cl)c2)cc1 [I-474] | > 200
Fc1cccc(N2CCCC3(CNc4cnc(N5CCCCC5)cc4N3)C2)c1 (stereo not shown) [I-993] | 10 to 100
Fc1cccc(N2CCC[C@@H](Nc3cc(N4C[C@@H]5C[C@H]4CO5)ncn3)C2)c1 [I-312] | > 200
NC(=O)C[C@H](NC(=O)c1cnn(Cc2cncs2)c1-c1ccccc1F)c1cccc(Cl)c1 [I-167] | > 200
NCCOCCOCCOCCC1CCN(c2ccnc(N3CC[C@@H]4[C@H]3CCCN4c3cccc(F)c3)c2)CC1 [I-649] | < 10
Cc1cc2nccn2cc1N1CCC[C@@H](Nc2cc(N3CCOCC3)ccn2)C1 [I-765] | > 200
Cc1sc2c(c1C)C(c1ccc(Cl)cc1)=N[C@@H](CC(=O)NCCOCCOCCOCCOCCOCCOCC(=O)c1[nH]cc(C(=O)N[C@@H](CC(N)=O)c3cccc(Cl)c3)c1-c1ccccc1F)c1nnc(C)n1-2 [I-898] | < 10
CNC(=O)C[C@H](NC(=O)c1c[nH]c(C(=O)COCCOCCOCCOCCOCCN)c1-c1c(F)ccc(F)c1C)c1cccc(Cl)c1 [I-820] | < 10
NC(=O)C[C@H](NC(=O)c1c[nH]nc1-c1ccccn1)c1cccc(Cl)c1 [I-202] | > 200
C=CC(=O)N[C@H]1CC[C@H](c2n[nH]cc2C(=O)N[C@@H](CC(N)=O)c2cccc(Cl)c2)CC1 [I-482] | > 200
c1ccc2c(N3CCC[C@@H](Nc4nccc(N5CCOCC5)n4)C3)ccnc2c1 [I-35] | 10 to 100
Nc1ccc(N2CCC[C@@H]3[C@H]2CCN3c2cc(N3CC4CC(C4)C3)ccn2)cc1F [I-733] | < 10
C=CC(=O)NC1CCCN(c2ccnc(N[C@@H]3CCCN(c4cccc(F)c4)C3)c2)C1 (stereo partly shown) [I-454] | 100 to 200
NCCCCCCCCCCCCCCCCCC(=O)c1[nH]cc(C(=O)N[C@@H](CC(N)=O)c2cccc(Cl)c2)c1-c1ccccc1F [I-662] | > 200
Cc1ccc(Cl)cc1[C@@H](CC(N)=O)NC(=O)c1cn[nH]c1-c1ccccc1F [I-584] | 10 to 100
Cc1c(F)ccc(F)c1-c1c(C(=O)N[C@@H](CC(N)=O)c2cccc(Cl)c2)c[nH]c1C(=O)COCCOCCOCCOCCOCCN [I-809] | < 10
c1cncc(-c2ccnc(N3CCC[C@@H](Nc4cc(N5CCOCC5)ccn4)C3)n2)c1 [I-416] | 10 to 100
Cc1c(F)ccc(F)c1-c1c(C(=O)N[C@@H](CC(=O)N2CCNCC2)c2cccc(Cl)c2)c[nH]c1C#N [I-876] | < 10
NC(=O)C[C@H](NC(=O)c1c[nH]nc1-c1ccccc1O)c1cccc(Cl)c1 [I-334] | 10 to 100
O=C(N[C@H](c1cccc(Cl)c1)[C@@H]1CCNC1=O)c1c[nH]nc1-c1ccccc1F [I-193] | > 200

Structure (SMILES) | Kd [µM]
c1ccc(N2CCC[C@H]3[C@@H]2CCN3c2cc(N3CC4CC(C4)C3)ccn2)cc1 [I-710] | 10 to 100
COC[C@@](CC(N)=O)(NC(=O)c1c[nH]nc1-c1ccccc1F)c1cccc(Cl)c1 [I-265] | > 200
C=CC(=O)NCCCCC1CCN(c2ccnc(N3CC[C@@H]4[C@H]3CCCN4c3cccc(F)c3)c2)CC1 [I-852] | < 10
CCCCN1CCN(c2cc(N[C@@H]3CCCN(c4cccc(F)c4)C3)ncn2)CC1 [I-377] | > 200
C=CC(=O)NCCCCN1CCN(c2ccnc(N[C@@H]3CCCN(c4cccc(F)c4)C3)c2)CC1 [I-633] | 10 to 100
COCCOCCOCC[C@@H]1CN(c2cc(N3CCCCC3)ccn2)[C@H]2CCCN(c3cccc(F)c3)[C@@H]12 [I-950] | 10 to 100
Cc1c(F)ccc(F)c1-c1c(C(=O)N[C@@H](CC(N)=O)c2cccc(Cl)c2)cn(C)c1C(=O)c1ccc(OCCOCCOCCOCCN)cc1 [I-1024] | < 10
CNC(=O)C[C@H](NC(=O)c1c[nH]c(C(=O)COCCOCCOCCOCCOCCNC(=O)C[C@@H]2N=C(c3ccc(Cl)cc3)c3c(sc(C)c3C)-n3c(C)nnc32)c1-c1c(F)ccc(F)c1C)c1cccc(Cl)c1 [I-910] | < 10
Cc1cccc(F)c1-c1[nH]ncc1C(=O)N[C@@H](CC(N)=O)c1cccc(Cl)c1 [I-149] | < 10
N[C@@H](c1ccccc1)c1ccc(N2CCC[C@@H](Nc3cc(N4CCOCC4)ccn3)C2)cc1 [I-683] | 10 to 100
NC(=O)C[C@H](NC(=O)c1cn[nH]c1[C@H]1CCCCO1)c1cccc(Cl)c1 [I-348] | > 200
CCCCN1CCN(c2ccnc(NC3CCCN(c4cccc(F)c4)C3)n2)CC1 (stereo not shown) [I-26] | > 200
O=C(N[C@@H](CC(=O)N1CCNCC1)c1cccc(Cl)c1)c1cn[nH]c1-c1ccccc1F [I-787] | < 10
Cc1c(F)ccc(F)c1-c1[nH]ncc1C(=O)N[C@@H](CC(=O)N1CCNCC1)c1cccc(Cl)c1 [I-885] | < 10
NCCCCCCCCCCCCCCCCCCCCC1CCN(c2ccnc(N3CC[C@@H]4[C@H]3CCCN4c3cccc(F)c3)c2)CC1 [I-745] | > 200
COc1ccc([C@H](CC(N)=O)NC(=O)c2cn[nH]c2-c2ccccc2F)cc1 [I-136] | 100 to 200
C=CC(=O)N(C)[C@H]1C[C@H](N(C)c2ccnc(N[C@@H]3CCCN(c4cccc(F)c4)C3)c2)C1 [I-480] | > 200
C=CC(=O)Nc1ccc2[nH]cc(C(=O)N[C@@H](CC(N)=O)c3cccc(Cl)c3)c2c1 [I-475] | > 200
Cc1nn(CC(F)(F)F)cc1N1CCC[C@@H](Nc2cc(N3CCOCC3)ccn2)C1 [I-422] | > 200
C=CC(=O)Nc1ccc2[nH]nc(C(=O)N[C@@H](CC(N)=O)c3cccc(Cl)c3)c2c1 [I-302] | > 200
O=C(C[C@H](NC(=O)c1cn[nH]c1-c1ccccc1F)c1cccc(Cl)c1)NCc1ccccc1 [I-84] | 10 to 100
c1ccc([C@@H]2CCC[C@H](Nc3cc(N4CCCCC4)ccn3)C2)cc1 [I-753] | 10 to 100
NC(=O)CC(Cc1ccccc1)NC(=O)c1cn[nH]c1-c1cc(F)ccc1F (stereo not shown) [I-814] | 10 to 100
CCCN1CCN(c2ccnc(N[C@@H]3CCCN(c4cccc(F)c4)C3)n2)CC1 [I-317] | > 200
c1cnc2c(N3CCC[C@@H](Nc4cc(N5CCOCC5)ccn4)C3)cnn2c1 [I-417] | > 200
NC[C@@H]1CCN(c2cccc(F)c2)C[C@H]1Nc1cc(N2CCCCC2)ccn1 [I-1044] | 10 to 100
NC(=O)CCc1ccc(F)c(-c2[nH]ncc2C(=O)N[C@@H](CC(N)=O)c2cccc(Cl)c2)c1 [I-522] | 10 to 100

Other lines, results leading:

Kd [µM] | Structure (SMILES)
< 10 | Fc1cccc(N2CCC[C@@H](N3CCc4c(N5CCOCC5)ccnc43)C2)c1 [I-196]
10 to 100 | C=CC(=O)NC1CCN(c2ccnc(N[C@@H]3CCCN(c4cccc(F)c4)C3)c2)CC1 [I-519]
10 to 100 | N#Cc1ccc(N2CCOCC2)cc1N[C@@H]1CCCN(c2cccc(F)c2)C1 [I-71]
> 200 | Fc1cccc(N2CCC[C@@H](Nc3nccc(N4CCNCC4)n3)C2)c1 [I-314]
> 200 | O[C@@H]1C[C@@H](Nc2cc(N3CCOCC3)ncn2)CN(c2cccc(F)c2)C1 [I-163]
> 200 | Fc1cccc(N2C[C@H](F)C[C@@H](Nc3cc(N4CCOCC4)ccn3)C2)c1 [I-275]
> 200 | NC(=O)CN(c1cc(N2CCOCC2)ccn1)[C@@H]1CCCN(c2cccc(F)c2)C1 [I-272]
> 200 | COC(=O)c1cc(N2CCC[C@@H](Nc3cc(N4CCOCC4)ccn3)C2)cc2c1OCO2 [I-779]
> 200 | CN(c1nccc(N2CCOCC2)n1)[C@@H]1CCCN(c2cccc(F)c2)C1 [I-39]
> 200 | Fc1cccc(N2CCCC[C@@H](Nc3cc(N4CCOCC4)ncn3)C2)c1 [I-219]
> 200 | Fc1cccc(N2CCC[C@@H](Nc3cc(N4CCOCC4)[nH]n3)C2)c1 [I-329]
> 200 | Fc1cccc(N2CCC[C@@H](Nc3ccnc(N4CCOCC4)n3)C2)c1 [I-321]
> 200 | Fc1cccc(N2CCCC3(C2)CN(c2cc(N4CCOCC4)ccn2)C3)c1 [I-221]
> 200 | N#Cc1cccc(N2CCC[C@@H](Nc3cc(N4CCOCC4)ccn3)C2)c1 [I-771]
> 200 | Fc1cccc(N2CCC[C@H]3[C@@H]2CCN3c2cc(N3CCOCC3)ccn2)c1 [I-540]
> 200 | Cc1ncc(N[C@@H]2CCCN(c3cccc(F)c3)C2)cc1N1CCOCC1 [I-545]
> 200 | NCCc1ccc(N2CCC[C@@H](Nc3cc(N4CCOCC4)ccn3)C2)cc1 [I-871]
> 200 | c1ccc(Cn2cc(N3CCC[C@@H](Nc4cc(N5CCOCC5)ccn4)C3)cn2)cc1 [I-420]
> 200 | C=CC(=O)N1CC2(CCN(c3ccnc(N[C@@H]4CCCN(c5cccc(F)c5)C4)c3)CC2)C1 [I-465]
> 200 | O=c1cc(N2CCOCC2)cc(N[C@@H]2CCCN(c3cccc(F)c3)C2)[nH]1 [I-303]
> 200 | Fc1cccc(N2CCC[C@@H](n3cnc4c(N5CCOCC5)ncnc43)C2)c1 [I-51]
< 10 | Fc1cccc(N2CCC[C@@H](Nc3cc(N4CCCCC4)ccn3)C2)c1 [I-503]
> 200 | O=C(O)CN(c1cc(N2CCOCC2)ccn1)[C@@H]1CCCN(c2cccc(F)c2)C1 [I-286]
> 200 | CCN1CCN(c2cc(N[C@@H]3CCCN(c4cccc(F)c4)C3)ncn2)CC1 [I-375]
> 200 | NC(=O)CCN(c1cc(N2CCOCC2)ccn1)[C@@H]1CCCN(c2cccc(F)c2)C1 [I-291]
> 200 | Fc1cccc(N2CCC[C@@H](Nc3cc(N4CCNCC4)ncn3)C2)c1 [I-373]
> 200 | Fc1cccc(N2CCC[C@]3(Cc4cnc(N5CCOCC5)cc4N3)C2)c1 [I-213]
